This is an account of results in patent US8222244B2, “Staurosporine derivatives as inhibitors of FLT3 receptor tyrosine kinase activity” (Novartis AG, priority 2001, dated 2012).

For one data set, the system named is Ba/F3-FLT3-ITD cells. Particulars: in 24-72 hours. The procedure:
(§1) To search for FLT3-targeted compounds, the applicant screened the inhibitory effects of several compounds on two different kinds of assays. • Tyrosine protein kinase assays with purified GST-Flt-3 were carried in a final volume of 30 μL containing 200-1800 ng of enzyme protein. The activity was assayed in the presence or absence of inhibitors, by measuring the incorporation of ^33P from [γ^33P] ATP into appropriate substrates. […] Cell lines expressing two different forms of mutated, activated FLT3 are used: Ba/F3-FLT3-ITD cells expressing a FLT3 mutant with an “Internal Tandem Duplication” (ITD) within the juxtamembrane domain of the receptor. Ba/F3-FLT3-D835Y cells expressing an FLT3 receptor containing a mutation converting […] at position 835 to Tyrosine.
(§2) A cell based assay is utilised to identify inhibitors of mutant FLT3 tyrosine kinase receptors.
(§3) The cell lines used for the initial screening are sublines of Ba/F3 cells that are engineered to express mutant or over-express wild-type (non-mutated) FLT3 following infection with a retrovirus expressing appropriate FLT3 cDNAs. The parent cell line, Ba/F3 is dependent on interleukin-3 for proliferation, and when deprived of IL-3, the cells rapidly cease proliferation and die. The retrovirus expresses FLT3 from the retrovirual LTR and the neo gene from an IRES site.

The test system of another data set is Ba/F3-FLT3-D835Y cells. Particulars: in 24-72 hours. The procedure: as §1, §2, §3
Data set [1] concerns human leukemia and lymphoma cell lines that did not have mutant FLT3 receptors. As to the kind of experiment: Cytotoxicity against leukemia and lymphoma cell lines without mutant FLT3 receptors. It counts as cell-based. As to conditions: at the concentrations required to inhibit the proliferation of FLT3-dependent cell-lines.
A further data set has as its target T1, human Flt-3 (Homo sapiens, UniProt P36888).
T1 construct: expresses the amino acid region amino acids 563-993 of the intra-cytoplasmic kinase domains of human Flt-3; made in house; host or cells: Sf9 insect cells (baculovirus, pFbacG01 donor vector)
T1 sequence (P36888 563-993): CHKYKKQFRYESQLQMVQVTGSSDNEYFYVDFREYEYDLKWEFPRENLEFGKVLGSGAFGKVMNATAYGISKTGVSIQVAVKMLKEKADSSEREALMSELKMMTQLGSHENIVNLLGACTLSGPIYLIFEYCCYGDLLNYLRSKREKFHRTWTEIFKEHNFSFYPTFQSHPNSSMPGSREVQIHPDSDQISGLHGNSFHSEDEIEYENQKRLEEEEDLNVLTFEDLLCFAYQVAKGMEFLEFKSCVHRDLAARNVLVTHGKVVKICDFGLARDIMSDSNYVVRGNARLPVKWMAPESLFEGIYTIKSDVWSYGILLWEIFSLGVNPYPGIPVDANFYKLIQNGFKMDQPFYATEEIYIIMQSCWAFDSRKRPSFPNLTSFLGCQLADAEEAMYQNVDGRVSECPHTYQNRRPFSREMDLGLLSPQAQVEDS
As to the kind of experiment: Tyrosine protein kinase assay with purified GST-Flt-3 (33P incorporation). It counts as biochemical. As to conditions: at a 1.0 micromolar concentration. In short, it runs like this: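 GST-fused Flt-3 cytoplasmic domain, expressed in baculovirus-infected Sf9 cells and purified, phosphorylates substrate with [γ-33P]ATP. Reaction spotted onto PVDF membranes, washed with H3PO4 and ethanol, and incorporated 33P counted by scintillation.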

Entries after “also recorded” stand apart in the source; their conditions may differ.

`CO[C@@H]1[C@H](N(C)C(=O)c2ccccc2)C[C@H]2O[C@]1(C)n1c3ccccc3c3c4c(c5c6ccccc6n2c5c31)C(=O)NC4` [MIDOSTAURIN, N-[(9S,10R,11R,13R)-2,3,10,11,12,13-hexahydro-10-methoxy-9-methyl-1-oxo-9,13-epoxy-1H,9H-diindolo[1,2,3-gh:3′,2′,1′-Im]pyrrolo[3,4-j][1,7]benzodiazonin-11-yl]-N-methylbenzamide]: the “G1 cell cycle arrest and apoptosis” value is “induced both G1 cell cycle arrest and apoptosis” with Ba/F3-FLT3-ITD cells; “induced both G1 cell cycle arrest and apoptosis” in the data set with Ba/F3-FLT3-D835Y cells. The cytotoxicity result in data set [1] was “not cytotoxic; also recorded: not cytoxic”. On to “(9a,10b,11b,13a)-11-[[N-Acetyl-4,6-di-O-acetyl-1-O-(phenylmethyl)-a-muramoyl]methylamino]-2,3,10,11,12,13-hexahydro-10-methoxy-9-methyl-9,13-epoxy-1H,9H-diindolo[1,2,3-gh:3′,2′,1′-lm]pyrrolo[3,4-j][1,7]benzodiazonin-1-one [149622-61-7]”, for which the “Flt3 Inhibition (percent inhibition of Flt3 kinase activity)” value at human Flt-3 was found to be 70%. On the same count and under the same terms, the figure for “(9a,10b,11b,13a)-11-[[N-Acetyl-4-O-acetyl-6-O-(1-oxooctadecyl)-1-O-(phenylmethyl)-a-muramoyl]methylamino]-2,3,10,11,12,13-hexahydro-10-methoxy-9-methyl-9,13-epoxy-1H,9H-diindolo[1,2,3-gh:3′,2′,1′-lm]pyrrolo[3,4-j][1,7]benzodiazonin-1-one [149622-62-8]” is 22%; for “(9a,10b,11b,13a)-11-[[N-Acetyl-4-O-acetyl-6-O-(1-oxooctadecyl)-a-muramoyl]methylamino]-2,3,10,11,12,13-hexahydro-10-methoxy-9-methyl-9,13-epoxy-1H,9H-diindolo[1,2,3-gh:3′,2′,1′-lm]pyrrolo[3,4-j][1,7]benzodiazonin-1-one [149622-64-0]” it is 27%; for “(9a,10b,11b,13a)-11-[[N-Acetyl-6-O-(methylsulfonyl)-1-O-(phenylmethyl)-a-muramoyl]methylamino]-2,3,10,11,12,13-hexahydro-10-methoxy-9-methyl-, 9,13-epoxy-1H,9H-diindolo[1,2,3-gh:3′,2′,1′-lm]pyrrolo[3,4-j][1,7]benzodiazonin-1-one [149622-41-3]” it is 51%. On the same count and under the same terms, the figure for “(9a,10b,11b,13a)-11-[[N-Acetyl-6-O-(methylsulfonyl)-a-muramoyl]methylamino]-2,3,10,11,12,13-hexahydro-10-methoxy-9-methyl-9,13-epoxy-1H,9H-diindolo[1,2,3-gh:3′,2′,1′-lm]pyrrolo[3,4-j][1,7]benzodiazonin-1-one [149622-54-8]” is 94%; for “(9a,10b,11b,13a)-11-[[N-Acetyl-6-amino-6-deoxy-1-O-(phenylmethyl)-a-muramoyl]methylamino]-2,3,10,11,12,13-hexahydro-10-methoxy-9-methyl-9,13-epoxy-1H,9H-diindolo[1,2,3-gh:3′,2′,1′-lm]pyrrolo[3,4-j][1,7]benzodiazonin-1-one, monomethanesulfonate [150622-14-3]” it is 99%; for “(9a,10b,11b,13a)-11-[[N-Acetyl-6-azido-6-deoxy-1-O-(phenylmethyl)-a-muramoyl]methylamino]-2,3,10,11,12,13-hexahydro-10-methoxy-9-methyl-,9,13-epoxy-1H,9H-diindolo[1,2,3-gh:3′,2′,1′-lm]pyrrolo[3,4-j][1,7]benzodiazonin-1-one [149622-42-4]” it is 61%.

As for “(9a,10b,11b,13a)-N-(2,3,10,11,12,13-Hexahydro-10-methoxy-9-methyl-1-oxo-9,13-epoxy-1H,9H-diindolo[1,2,3-gh:3′,2′,1′-lm]pyrrolo[3,4-j][1,7]benzodiazonin-11-yl)-N-methyl-4-nitro-benzamide [120685-46-3]”, on human Flt-3, the “Flt3 Inhibition (percent inhibition of Flt3 kinase activity)” value is reported as 81%. Regarding “N-[(9S,10R,11R,13R)-2,3,10,11,12,13-Hexahydro-10-methoxy-9-methyl-1-oxo-9,13-epoxy-1H,9H-diindolo[1,2,3-gh:3′,2′,1′-lm]pyrrolo[3,4-j][1,7]benzodiazonin-11-yl]-2-hydroxy-N-methyl-Benzamide [178955-60-7]”, on human Flt-3, the “Flt3 Inhibition (percent inhibition of Flt3 kinase activity)” value is 89%. Same read-out and setting: in the case of “[9S-(9a,10b,11b,13a)]-(2,3,10,11,12,13-Hexahydro-10-methoxy-9-methyl-1,3-dioxo-9,13-epoxy-1H,9H-diindolo[1,2,3-gh:3′,2′,1′-lm]pyrrolo[3,4-j][1,7]benzodiazonin-11-yl)methyl-carbamic acid, 1,1-dimethylethyl ester [154589-93-2]” it was 67%; in that of “[9S-(9a,10b,11b,13a)]-(2,3,10,11,12,13-Hexahydro-10-methoxy-9-methyl-1-oxo-9,13-epoxy-1H,9H-diindolo[1,2,3-gh:3′,2′,1′-lm]pyrrolo[3,4-j][1,7]benzodiazonin-11-yl)methyl-carbamic acid, 2-methylpropyl ester [154590-03-1]”, 49%; in that of “[9S-(9a,10b,11b,13a)]-N-(2,3,10,11,12,13-Hexahydro-10-methoxy-9-methyl-1-oxo-9,13-epoxy-1H,9H-diindolo[1,2,3-gh:3′,2′,1′-lm]pyrrolo[3,4-j][1,7]benzodiazonin-11-yl)-N-methyl-2-[(tetrahydro-2H-pyran-4-yl)oxy]-acetamide [160251-52-5]”, 94%. On the same count and under the same terms, the figure for “[9S-(9a,10b,11b,13a)]-[3-[(2,3,10,11,12,13-Hexahydro-10-methoxy-9-methyl-1-oxo-9,13-epoxy-1H,9H-diindolo[1,2,3-gh:3′,2′,1′-lm]pyrrolo[3,4-j][1,7]benzodiazonin-11-yl)methylamino]-3-oxopropyl]-carbamic acid, 1,1-dimethylethyl ester [124078-44-0]” is 87%. On the same count and under the same terms, the figure for “[9S-(9a,10b,13a)]-2,3,9,10,12,13-Hexahydro-10-hydroxy-9-methyl-9,13-epoxy-1H,11H-diindolo[1,2,3-gh:3′,2′,1′-lm]pyrrolo[3,4-j][1,7]benzodiazonine-1,11-dione, 11-oxime [187457-73-4]” is 89%. On to “[9a,10b,11b(S*),13a]-2-(Acetylamino)-2-deoxy-3-O-[1-[[(2,3,10,11,12,13-hexahydro-10-methoxy-9-methyl-1-oxo-9,13-epoxy-1H,9H-diindolo[1,2,3-gh:3′,2′,1′-lm]pyrrolo[3,4-j][1,7]benzodiazonin-11-yl)methylamino]carbonyl]propyl]-a-D-Glucopyranose [149622-60-6]”, for which the “Flt3 Inhibition (percent inhibition of Flt3 kinase activity)” value on human Flt-3 is 76%.

As to “[9a,10b,11b(S*),13a]-phenylmethyl 2-(acetylamino)-2-deoxy-3-O-[1-[[(2,3,10,11,12,13-hexahydro-10-methoxy-9-methyl-1-oxo-9,13-epoxy-1H,9H-diindolo[1,2,3-gh:3′,2′,1′-lm]pyrrolo[3,4-j][1,7]benzodiazonin-11-yl)methylamino]carbonyl]propyl]-a-D-Glucopyranoside [149622-45-7]”, the “Flt3 Inhibition (percent inhibition of Flt3 kinase activity)” value at human Flt-3 is reported as 43%.
